Reference: the supplement of paper PMC10307832

Assays:
Experiment in all cases: relative viability (nuclei count vs DMSO), 5 days (fraction); higher = more cells survive
[1] = compound: C1=CC2=C(C=C(C(=C2N=C1)O)N=NC3=CC4=C(C=C3)C=C(C=C4)S(=O)(=O)O)S(=O)(=O)O + CC(=O)c1c(C)c2cnc(Nc3ccc(N4CCNCC4)cn3)nc2n(C2CCCC2)c1=O [Palbociclib] (partner 0.5 µM)
How it was run: (§1)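 Values are medians from duplicate plates. Each reflects relative viability, defined as the nuclei count of treated wells over that of vehicle wells. Lung cancer cell lines in 1536-well plates were pin-tool dosed one day after seeding with one drug alone or with a fixed anchor-drug dose plus five library-drug doses (not always all listed) in √10 steps, then fixed, stained and imaged at 4× after 5 days.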

[2] = compound: C1=CC2=C(C=C(C(=C2N=C1)O)N=NC3=CC4=C(C=C3)C=C(C=C4)S(=O)(=O)O)S(=O)(=O)O + CC1(C)CCC(c2ccc(Cl)cc2)=C(CN2CCN(c3ccc(C(=O)NS(=O)(=O)c4ccc(N[C@H](CCN5CCOCC5)CSc5ccccc5)c(S(=O)(=O)C(F)(F)F)c4)cc3)CC2)C1 [Navitoclax] (partner 0.5 µM)
How it was run: as §1

AT-7519 + Crizotinib = compound: O=C(NC1CCNCC1)c1n[nH]cc1NC(=O)c1c(Cl)cccc1Cl [AT-7519] + C[C@@H](Oc1cc(-c2cnn(C3CCNCC3)c2)cnc1N)c1c(Cl)ccc(F)c1Cl [Crizotinib] (partner 1 µM)
How it was run: as §1

AT-7519 + Linsitinib = compound: O=C(NC1CCNCC1)c1n[nH]cc1NC(=O)c1c(Cl)cccc1Cl [AT-7519] + C[C@]1(O)C[C@@H](c2nc(-c3ccc4ccc(-c5ccccc5)nc4c3)c3c(N)nccn32)C1 [Linsitinib] (partner 1 µM)
How it was run: as §1

| Cell Line | relative viability ([1]; first compound 0.08 µM) | relative viability ([1]; first compound 0.253 µM) | relative viability ([1]; first compound 0.8 µM) | relative viability ([1]; first compound 2.53 µM) | relative viability ([1]; first compound 8 µM) | relative viability ([2]; first compound 0.08 µM) | relative viability ([2]; first compound 0.253 µM) | relative viability ([2]; first compound 0.8 µM) | relative viability ([2]; first compound 2.53 µM) | relative viability ([2]; first compound 8 µM) | relative viability (AT-7519 + Crizotinib; first compound 0.01 µM) | relative viability (AT-7519 + Crizotinib; first compound 0.03162 µM) | relative viability (AT-7519 + Crizotinib; first compound 0.3162 µM) | relative viability (AT-7519 + Crizotinib; first compound 1 µM) | relative viability (AT-7519 + Linsitinib; first compound 0.01 µM) | relative viability (AT-7519 + Linsitinib; first compound 0.03162 µM) | relative viability (AT-7519 + Linsitinib; first compound 0.3162 µM) | relative viability (AT-7519 + Linsitinib; first compound 1 µM) |
| --- | --- | --- | --- | --- | --- | --- | --- | --- | --- | --- | --- | --- | --- | --- | --- | --- | --- | --- |
| NCI-H1437 | 0.356 | 0.321 | 0.308 | 0.3 | 0.352 | 1.08 | 1.08 | 1.11 | 1.16 | 1.08 | 0.93 | 1.06 | 0.9 | 0.361 | 1.14 | 1.17 | 0.81 | 0.344 |
| NCI-H1651 | 0.522 | 0.502 | 0.511 | 0.55 | 0.499 | 1.04 | 0.932 | 1.14 | 1.15 | 0.991 | 0.858 | 0.846 | 0.909 | 0.847 | 1.16 | 0.963 | 0.917 | 0.886 |
| NCI-H1666 | 0.667 | 0.704 | 0.626 | 0.668 | 0.645 | 0.87 | 0.91 | 0.962 | 1.14 | 0.842 | 0.902 | 0.972 | 0.726 | 0.604 | 0.727 | 0.784 | 0.807 | 0.376 |
| NCI-H1734 | 0.367 | 0.323 | 0.344 | 0.375 | 0.329 | 1.13 | 0.86 | 0.784 | 0.877 | 0.884 | 0.662 | 0.724 | 0.544 | 0.305 | 0.92 | 0.874 | 0.796 | 0.549 |
| NCI-H1755 | 0.473 | 0.438 | 0.437 | 0.468 | 0.415 | 1.06 | 0.963 | 0.977 | 0.993 | 0.726 | 0.837 | 1.03 | 0.935 | 0.688 | 1 | 0.993 | 1.03 | 0.967 |
| NCI-H1792 | 0.674 | 0.654 | 0.673 | 0.667 | 0.597 | 0.712 | 0.578 | 0.598 | 0.623 | 0.632 | 0.548 | 0.916 | 0.904 | 1.09 | 0.291 | 0.358 | 0.441 | 0.444 |
| NCI-H1915 | 0.415 | 0.523 | 0.488 | 0.545 | 0.494 | 0.818 | 0.764 | 0.835 | 0.765 | 0.768 | 0.933 | 0.926 | 0.793 | 0.741 | 1.08 | 1.05 | 1.11 | 0.909 |
| NCI-H1944 | 0.347 | 0.323 | 0.337 | 0.359 | 0.327 | 1.13 | 0.982 | 0.992 | 1.06 | 0.991 | 1.18 | 1.34 | 0.926 | 0.862 | 1.16 | 1.02 | 1.12 | 1.13 |
| NCI-H1975 | 0.753 | 0.592 | 0.606 | 0.639 | 0.666 | 1.3 | 1.13 | 1.07 | 1.26 | 0.979 | 1.09 | 0.973 | 0.877 | 0.206 | 0.917 | 0.795 | 0.746 | 0.172 |
| NCI-H1993 | 0.625 | 0.669 | 0.603 | 0.687 | 0.763 | 1.05 | 0.913 | 1.05 | 0.893 | 1.01 | 0.846 | 0.82 | 0.813 | 0.577 | 0.707 | 0.738 | 0.663 | 0.585 |
| NCI-H2009 | 0.221 | 0.22 | 0.245 | 0.214 | 0.192 | 1.19 | 1.1 | 1.08 | 1.14 | 1.18 | 1.21 | 1.07 | 1.12 | 0.295 | 1.24 | 1.24 | 1.15 | 0.676 |
| NCI-H2023 | 0.451 | 0.395 | 0.391 | 0.421 | 0.309 | 1.03 | 1.01 | 0.965 | 0.984 | 0.973 | 0.702 | 0.697 | 0.605 | 0.125 | 0.731 | 0.699 | 0.626 | 0.329 |
| NCI-H2085 | 0.492 | 0.481 | 0.451 | 0.486 | 0.463 | 1.2 | 1.14 | 0.98 | 1.12 | 1.18 | 0.762 | 0.832 | 0.696 | 0.553 | 0.904 | 0.857 | 0.726 | 0.637 |
| NCI-H2087 | 0.238 | 0.213 | 0.199 | 0.215 | 0.191 | 0.926 | 0.878 | 0.868 | 0.889 | 0.948 | 0.801 | 0.868 | 0.894 | 0.171 | 1.07 | 1.1 | 0.78 | 0.141 |
| NCI-H2126 | 0.342 | 0.363 | 0.359 | 0.36 | 0.327 | 0.882 | 0.792 | 0.845 | 0.935 | 0.832 | 1.07 | 1.05 | 0.931 | 1 | 0.747 | 0.744 | 0.682 | 0.675 |
| NCI-H2228 | 0.81 | 0.726 | 0.79 | 0.822 | 0.92 | 1.09 | 0.801 | 0.953 | 0.577 | 0.874 | 0.549 | 0.379 | 0.403 | 0.313 | 0.618 | 0.564 | 0.544 | 0.312 |
| NCI-H2347 | 0.459 | 0.447 | 0.44 | 0.482 | 0.426 | 0.898 | 0.738 | 0.809 | 0.917 | 0.391 | 0.627 | 0.706 | 0.645 | 0.573 | 1.08 | 1.01 | 0.919 | 0.793 |
| NCI-H2405 | 0.517 | 0.543 | 0.504 | 0.575 | 0.513 | 0.86 | 0.746 | 0.959 | 0.993 | 0.788 | 0.794 | 0.847 | 0.827 | 0.598 | 1.19 | 0.847 | 0.865 | 0.473 |
| NCI-H3122 | 0.215 | 0.185 | 0.176 | 0.2 | 0.216 | 0.98 | 1.04 | 0.996 | 1.03 | 1.04 | 0.272 | 0.277 | 0.241 | 0.208 | 0.971 | 1.03 | 1.06 | 0.421 |
| PC-3 [JPC-3] | 0.572 | 0.566 | 0.528 | 0.577 | 0.565 | 0.888 | 0.748 | 0.854 | 0.722 | 0.725 | 1.09 | 0.99 | 0.962 | 0.95 | 0.957 | 0.974 | 1.04 | 1.02 |
| PC-14 | 0.653 | 0.52 | 0.548 | 0.597 | 0.474 | 1.02 | 0.973 | 0.982 | 1.05 | 1.01 | 0.755 | 0.911 | 0.818 | 0.811 | 0.927 | 0.873 | 0.909 | 0.848 |
| RERF-LC-KJ | 1.31 | 1.13 | 1.11 | 1.06 | 1.01 | 1.12 | 1.01 | 0.963 | 1.05 | 0.877 | 0.802 | 0.738 | 0.963 | 0.806 | 0.914 | 0.848 | 1.03 | 0.811 |
| SK-LU-1 | 0.456 | 0.391 | 0.344 | 0.399 | 0.428 | 1.15 | 0.947 | 0.747 | 0.732 | 0.801 | 1.12 | 0.799 | 0.713 | 0.48 | 1.39 | 1.2 | 0.849 | 0.356 |
| SK-MES-1 | 0.351 | 0.332 | 0.34 | 0.318 | 0.342 | 1.26 | 1.16 | 1.31 | 1.26 | 1.19 | 1.05 | 0.903 | 0.854 | 0.787 | 1.08 | 0.958 | 1.08 | 0.953 |
| SW 1573 | 0.463 | 0.41 | 0.397 | 0.38 | 0.0522 | 1.01 | 0.971 | 1.03 | 0.964 | 0.977 | 0.817 | 0.755 | 0.84 | 0.368 | 0.762 | 0.664 | 0.739 | 0.398 |
